Measured values reported in US20230398092A1, “APPLICATION OF SESQUITERPENE LACTONE COMPOUND IN PREPARATION OF DRUGS FOR ALLEVIATING RADIOTHERAPY-INDUCED INJURIES” (ACCENDATECH CO., LTD., priority 2020, published 2023).
Where two headings read alike, the source gives them in different places.

Tests used:
[1] = test system: U118-MG human brain astroblastoma cell strain; experiment: Anti-proliferation activity of ACT001 at different radiation doses (CCK-8); assay type: cell-based; settings: ACT001 20 μM; for inhibition at 20 µM: Homo sapiens, U-118-MG, U118-MG cells, read-out: Inhibition rate (%) at different radiation doses
Method: The culture medium for U118-MG was DMEM, and the cells were cultured in a cell incubator at 37° C. with 5% CO2.
Recover of U118-MG cells: a cryopreservation tube was taken from liquid nitrogen, placed in water bath at 37° C. to thaw the cryopreservation solution, and centrifuged at 1000 rpm for 5 min. The supernatant was discarded, and the cells were resuspended in a complete culture medium and cultured under the condition of 37° C., 5% CO2.
(§1) When 70-80% of the bottom of the culture flask was covered by the cells, the culture medium was discarded by pipetting. The cells were washed with 2-3 mL of PBS buffer and digested with 1-2 mL of 0.25% pancreatin (just enough to cover the bottom of the flask). Immediately after the cell became round after being cultured in the incubator for a period of time, a complete culture medium was added to stop the digestion, and the cell suspensions after the digestion were combined and centrifuged at 1000 rpm for 5 min. The supernatant was discarded, and the cells were resuspended in a complete culture medium, gently pipetted, and counted. The cell density was adjusted to 2500 cells/well, and the cells were seeded into a 96-well plate at 90 μL/well.
Dosing was performed one day after the cells were seeded. Each plate was divided into a blank group, a negative control group and 10 compound groups, with 4-6 duplicate wells set for each group. 10 μL of the compound was added to each well. 3 h later, each well received a corresponding radiation dose. The cells were cultured at 37° C. for 24 h. After that, the culture medium was discarded, a corresponding fresh culture medium was added, and the plate was incubated for 48 h. At the end of incubation, 10 μL of CCK-8 solution (taking care not to create air bubbles in the wells, which would affect the OD readings) was added to each well, and the plate was incubated in the incubator for 1-4 h. The OD value at 450 nm was determined with a microplate reader.
The data were processed with an EXCEL software to solve inhibition rates at different concentrations, and IC50 values were obtained by fitting with SPSS. The mean and standard deviation of the IC50 values obtained three times were solved by SPSS.
Inhibition rate %={1−(OD value of compound well−OD value of blank well)/(OD value of control well−OD value of blank well)}×100%

[2] = test system: BEAS2B human normal lung epithelial cell strain; experiment: Selective radiotherapy protection effect on normal cells (CCK-8), normal lung epithelial cells; assay type: cell-based; settings: ACT001 10 μM, 0-6 Gy, radiation 1 h after dosing, 48 h, FIG. 5
Method: (§2) The culture medium for H226 and BEAS2B cells was DMEM, and the cells were cultured in a cell incubator at 37° C. with 5% CO2.
(§3) Recover of H226 and BEAS2B cells: a cryopreservation tube was taken from liquid nitrogen, placed in water bath at 37° C. to thaw the cryopreservation solution, and centrifuged at 1000 rpm for 5 min.
(§4) The supernatant was discarded, and the cells were resuspended in a complete culture medium and cultured under the condition of 37° C., 5% CO2.
as §1, with “culture dish” for “culture flask”, “was discarded.” for “was discarded by pipetting.”, “with 1” for “with 1-2”, “counted. […]” for “counted. The cell density was adjusted to 2500 cells/well, and the cells were seeded into a 96-well plate at 90 μL/well.”
(§5) Dosing was performed 24 h after the cells were seeded. […] 10 μL of CCK-8 solution (taking care not to create air bubbles in the wells, which would affect the OD readings) was added to each well, and the plate was incubated in the incubator for 1-4 h. The OD value at 450 nm was determined with a microplate reader.

[3] = test system: H226 human squamous lung carcinoma cell strain; experiment: Selective radiotherapy protection effect (CCK-8), lung cancer cells; assay type: cell-based; settings: ACT001 10 μM, 0-6 Gy, radiation 1 h after dosing, 48 h, FIG. 5
Method: as §2, §3, §4
as §1, with “culture dish” for “culture flask”, “was discarded.” for “was discarded by pipetting.”, “with 1” for “with 1-2”, “counted. […]” for “counted. The cell density was adjusted to 2500 cells/well, and the cells were seeded into a 96-well plate at 90 μL/well.”
as §5

[4] = test system: SYSY human neuroblastoma cell strain; experiment: Alleviation of radiation-induced neuronal cell death (CCK-8); assay type: cell-based; settings: ACT001 1.25-10 μM, 0-10 Gy, radiation 1 h after dosing, 48 h, FIG. 6
Method: The culture medium for SYSY cells was DMEM, and the cells were cultured in a cell incubator at 37° C. with 5% CO2.
Recover of SYSY cells: a cryopreservation tube was taken from liquid nitrogen, placed in water bath at 37° C. to thaw the cryopreservation solution, and centrifuged at 1000 rpm for 5 min. The supernatant was discarded, and the cells were resuspended in a complete culture medium and cultured under the condition of 37° C., 5% CO2.
as §1, with “culture dish” for “culture flask”, “was discarded.” for “was discarded by pipetting.”, “with 1” for “with 1-2”, “counted. […]” for “counted. The cell density was adjusted to 2500 cells/well, and the cells were seeded into a 96-well plate at 90 μL/well.”
as §5

[5] = test system: BALB/c mice; experiment: Effect of ACT001 on survival of mice subjected to radiotherapy; assay type: in vivo
Excerpt: (§6) Adult BALB/c mice, 18-19 g, 8 weeks, female, SPF (Beijing) Biotechnology Co., Ltd., animal certificate number: SCXK (Beijing) 2016-0002. The test animals were bred in the common environment of the experimental animal center of the Institute of Radiation Medicine, Chinese Academy of Medical Sciences, with 5 animals in each cage. The padding was autoclaved special padding for mice, and the mice were fed with special sterilized feed, and were free to drink purified water. In the animal laboratory, the temperature was kept at about 25° C., the relative humidity was kept at 40%-70%, and the illumination was provided for 12 h daily.
In a preliminary experiment of radiation dose exploration, mice were subjected to radiation at 8 Gy, 10 Gy, 12 Gy, and 14 Gy, respectively. All animals died 18 days after the radiation. However, the animals in the 8 Gy group survived longer than the other groups, so the radiation dose of 8 Gy was selected for the formal experiment.
3.1 Experimental Procedures • (1) The lethal dose of a single radiation of mice was determined through a preliminary experiment; (2) the mice were randomly grouped by the body weight; • (3) ACT001 was pre-administered for 17 consecutive days, and the state of the animals was observed and the body weight was measured daily; • (4) the mice in groups (3) and (4) were subjected to radiation at a lethal dose after 17 days of the administration, and on the day of radiation, ACT001 was administered 1 h before the radiation; • (5) ACT001 was continuously administered for five weeks after the radiation, and the survival state of the animals was observed and the body weight was measured daily. The survival rate and survival time of mice in each group were calculated.
3.2 Grouping Regimen • (1) Blank control group • (2) ACT001-200 mg/kg group • (3) Radiotherapy-8 Gy group • (4) ACT001-200 mg/kg+radiotherapy-8 Gy group
A total of 4 groups were set in the experiment, with 10 animals in each group.
3.3 Administration Method • ACT001 (dissolved in normal saline) was administered intragastrically once daily, with an interruption once a week; • an equal volume of normal saline was administered intragastrically to the blank control group.
Data were expressed as x±s; statistical analysis among groups was performed using the t-test program in EXCEL software, and the logrank chi-square test method was used to evaluate whether there was statistical significance in each group of dead animals.

[6] = test system: BALB/c mice; experiment: Effect of ACT001 on radiation-induced neuronal apoptosis of mice (Tunel staining of whole brain); assay type: in vivo; settings: ACT001 200 mg/kg intragastrically + brain radiation 2 Gy × 4 or single 4 Gy, day 14, Tunel staining, FIG. 7
Excerpt: as §6, with “2.3 Experimental Animal and Feeding Conditions • Adult” for “Adult”, “2019-0010.” for “2016-0002.”, “barrier” for “common”, “daily. 3. Experimental procedures and compound treatment” for “daily.”
3.1 Administration Method • ACT001 (dissolved in sterile normal saline) was administered intragastrically once daily; an equal volume of sterile normal saline was administered to the model control group; • The compound for each group was prepared freshly prior to use.
3.2 Experimental Grouping • (1) Model control group • (2) Radiotherapy control group (4 Gy) • (3) ACT001-200 mg/kg group • (4) ACT001-200 mg/kg+4 Gy group • (5) Radiotherapy low-dose control group (2 Gy) • (6) ACT001-200 mg/kg+2 Gy group • 10 animals in each group, 60 animals in total.
The mice were randomly grouped, with 10 mice in each group. […]

In the case of `CC1=C2CC[C@@](C)(O)[C@@H]2[C@H]2OC(=O)[C@@H](CN(C)C)[C@@H]2CC1.O=C(O)/C=C/C(=O)O` [ACT001, (3R,3aS,9R,9aS,9bS)-3-((dimethylamino)methyl)-9-hydroxy-6,9-dimethyl-3,3a,4,5,7,8,9,9a-octahydroazuleno[4,5]furan-2(9bH)-one fumarate], the “Effect on the inhibition by radiation of the proliferation of U118-MG cells” value ([1]; FIG. 1) is reported as “significantly enhance the inhibition effect of the radiation group”, the inhibition at 20 µM ([1]; 0 Gy) is reported as 19.2% and the inhibition at 20 µM ([1]; 6 Gy) is reported as 22.8%. It also gave an inhibition at 20 µM ([1]; 10 Gy) of 33.8%, an inhibition at 20 µM ([1]; 20 Gy) of 36.1% and an inhibition at 20 µM ([1]; 50 Gy) of 75.6%. The “Effect on radiotherapy-induced injuries of BEAS2B cells” value [2] was “significantly reduce radiotherapy-induced injuries of BEAS2B cells”, the “Protection effect on H226 tumor cells against radiation” value [3] was “no protection effect on H226 tumor cells” and the “Effect on injuries of SYSY cells caused by radiation” value [4] was “significantly reduce the injuries of SYSY cells caused by radiation”. For the same compound, the “Day on which animal death occurred” value ([5]; ACT001 200 mg/kg + radiotherapy 8 Gy group) was 15 days, the “Survival time compared with the radiotherapy control-8 Gy group” value ([5]; ACT001 200 mg/kg + radiotherapy 8 Gy, P<0.01) was “significantly prolonged” and the “State and body weight of animals during pre-administration” value ([5]; ACT001 200 mg/kg intragastrically, 17 consecutive days before radiotherapy) was “in good state with stable body weight”. For the same compound, the “Survival rate (%)” value ([5]; ACT001 200 mg/kg p.o. × 49 + systemic radiotherapy 8 Gy × 1, BALB/c mice) was 70%, the “Body weight (g) End” value ([5]; ACT001 200 mg/kg p.o. × 49 + systemic radiotherapy 8 Gy × 1, x ± s) was 18.5 ± 2.9 g and the “Survival rate (%)” value ([5]; ACT001 200 mg/kg p.o. × 49, no radiotherapy, BALB/c mice) was 100%. For the same compound, the “Body weight (g) End” value ([5]; ACT001 200 mg/kg p.o. × 49, no radiotherapy, x ± s) was 19.1 ± 3.0 g and the “Apoptosis of neurons in the cerebral cortex compared with radiation-only groups” value [6] was “significantly reduce the apoptosis of neurons”.
